Measurements reported in patent publication EP1874270B1, “PHARMACEUTICAL AEROSOL COMPOSITION” (priority 2005, dated 2006).
Each block holds one molecule with its values, some of them ahead of it.

Legend:
[1] = Colloidal solubilization of the active agent with non-ionic surfactant and lecithin
[2] = Inhalation experiments: local anesthetic effect; format: in vivo; settings: inhalation of 0.55 % (w/v) lidocaine base in colloidal tyloxapol/DMPC solution (Example 5); effect undesirable in this context
Source text: Sometimes, but not necessarily, bad taste is accompanied by mucosal irritations caused by the substance. This occurs in various degrees which, in the case of application by inhalation, may range from slight irritation of the pharynx and/or respiratory tract to cough, fits of coughing, bronchoconstrictions and bronchospasms. […] In a further embodiment of the invention, the preparation accordingly contains an active agent which is irritating to the mucosa or causes coughing or bronchoconstrictions. In this connection, active agents from the group of corticoids, betamimetics, anti-cholinergics, anesthetics and antiinfectives are again preferred.
After a sterile filtration, the colloidal solution was filled into pre-sterilized single dose containers (0.5 - 3 ml) of glass and polypropylene.

[3] = format: physicochemical
Procedure: Buffered aqueous solutions of tyloxapol, DMPC and tyloxapol in a mixture with DMPC were prepared. The saturation solubility of budesonide in these solutions was measured by adding an excess of budesonide and treating the sample with heat and ultrasound and subsequently allowing it to stand for equilibration. The equilibrated samples were filtered through a membrane filter with a pore width of 0.22 µm and the content of budesonide in the filtrate was determined. […]

[4] = Polysorbate 80 0.10 wt.-%, Lipoid S100 1.0 wt.-%, ratio 1:10
[5] = Polysorbate 80 0.50 wt.-%, Lipoid S100 3.0 wt.-%, ratio 1 : 6

Fluticasone prop. solubilized [1, 4]: 0.07 mg/mL | Fluticasone prop. solubilized [1, 5]: 0.18 mg/mL
Structure (SMILES): CCC(=O)O[C@]1(C(=O)SCF)[C@H](C)C[C@H]2[C@@H]3C[C@H](F)C4=CC(=O)C=C[C@]4(C)[C@@]3(F)[C@@H](O)C[C@@]21C [Fluticasone prop., fluticasone propionate]

Structure (SMILES): CCN(CC)CC(=O)Nc1c(C)cccc1C [lidocaine]
local anesthetic effect of lidocaine [2]: reduced

Budesonide solubilized [1, 4]: 0.36 mg/mL | Budesonide solubilized ([1]; Polysorbate 80 0.15 wt.-%, Lipoid S100 1.5 wt.-%, ratio 1:10): 0.43 mg/mL | Budesonide solubilized ([1]; Polysorbate 80 0.25 wt.-%, Lipoid S100 1.5 wt.-%, ratio 1 : 6): 0.47 mg/mL | Budesonide solubilized ([1]; Polysorbate 80 0.40 wt.-%, Lipoid S100 1.5 wt.-%, ratio 1 : 3.75 (for comparison and/or reference only)): 0.50 mg/mL | Budesonide solubilized ([1]; Polysorbate 80 0.50 wt.-%, Lipoid S100 2.0 wt.-%, ratio 1:4 (for comparison and/or reference only)): 0.83 mg/mL | Budesonide solubilized [1, 5]: 1.09 mg/mL | Budesonide solubilized ([1]; Solutrol HS 15 0.10 wt.-%, Lipoid S100 1.5 wt.-%, ratio 1 : 15): 0.43 mg/mL | Budesonide solubilized ([1]; Solutrol HS 15 0.25 wt.-%, Lipoid S100 1.5 wt.-%, ratio 1 : 6): 0.47 mg/mL | Budesonide solubilized ([1]; Solutrol HS 15 0.50 wt.-%, Lipoid S100 1.5 wt.-%, ratio 1 : 3.33 (for comparison and/or reference only)): 0.48 mg/mL | Budesonide solubilized ([1]; Vitamin E TPGS 0.10 wt.-%, Lipoid S100 1.0 wt.-%, ratio 1 : 10): 0.37 mg/mL | Budesonide solubilized ([1]; Vitamin E TPGS 0.10 wt.-%, Lipoid S100 1.5 wt.-%, ratio 1 : 15): 0.44 mg/mL | Budesonide solubilized ([1]; Vitamin E TPGS 0.25 wt.-%, Lipoid S100 1.5 wt.-%, ratio 1 : 6): 0.46 mg/mL | Budesonide solubilized ([1]; Vitamin E TPGS 0.50 wt.-%, Lipoid S100 1.5 wt.-%, ratio 1 : 3.33 (for comparison and/or reference only)): 0.48 mg/mL | Budesonide solubilized ([1]; Vitamin E TPGS 0.50 wt.-%, Lipoid S100 2.0 wt.-%, ratio 1 : 4 (for comparison and/or reference only)): 0.80 mg/mL | Budesonide solubilized ([1]; Vitamin E TPGS 0.50 wt.-%, Lipoid S100 3.0 wt.-%, ratio 1 : 6): 1.09 mg/mL | budesonide colloidally solubilized at a concentration of ([1]; vitamin E TPGS 0.04 wt.-%, polysorbate 80 0.06 wt.-%, lecithin 1.0 wt.-%): 0.38 mg/mL | budesonide colloidally solubilized at a concentration of ([1]; vitamin E TPGS 0.2 wt.-%, polysorbate 80 0.3 wt.-%, lecithin 3.0 wt.-%): 0.95 mg/mL | saturation concentration of budesonide in DMPC solutions [3]: could not be increased
Structure (SMILES): CCCC1O[C@@H]2C[C@H]3[C@@H]4CCC5=CC(=O)C=C[C@]5(C)[C@H]4[C@@H](O)C[C@]3(C)[C@]2(C(=O)CO)O1 (stereo partly drawn) [Budesonide, budesonide]
